Among the data in patent publication US8119661B2, “Piperidine derivatives and their use as muscarinic receptor modulators” (AstraZeneca AB, priority 2007, dated 2012) are EC50 values, retold here.

What is called EC50 is the concentration needed to bring the measured effect to its halfway point.

What all share (assay type): cell-based
The target in test [1] is T1, hM1 (human Muscarinic receptor subtype 1) (Homo sapiens, UniProt P11229).
T1 construct: expressed in transfected cells; host or cells: CHO cells (Chinese hamster ovary cells, ATCC)
T1 sequence (P11229 1-460): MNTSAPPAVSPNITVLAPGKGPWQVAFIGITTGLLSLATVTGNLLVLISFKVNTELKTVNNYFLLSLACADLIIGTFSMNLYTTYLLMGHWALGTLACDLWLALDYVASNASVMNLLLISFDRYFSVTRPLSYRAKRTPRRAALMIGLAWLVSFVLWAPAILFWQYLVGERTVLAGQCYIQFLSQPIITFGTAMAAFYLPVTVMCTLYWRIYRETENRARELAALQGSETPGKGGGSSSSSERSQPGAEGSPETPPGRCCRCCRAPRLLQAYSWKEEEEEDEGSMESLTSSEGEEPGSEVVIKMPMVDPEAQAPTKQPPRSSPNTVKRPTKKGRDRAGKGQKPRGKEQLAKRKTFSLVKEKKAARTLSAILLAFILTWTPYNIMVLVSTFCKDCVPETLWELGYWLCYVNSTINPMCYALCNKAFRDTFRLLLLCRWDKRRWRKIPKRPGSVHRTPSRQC
Nature of the test: Human M1 calcium mobilization FLIPR assay. The note with it: CHO cells expressing hM1, intracellular Ca2+ release. As for the experimental part: (§1) The compound activity in the present invention (EC50 or IC50) is measured using a 384 plate-based imaging assay that monitors drug induced intracellular Ca^2+ release in whole cells. Activation of hM1 (human Muscarinic receptor subtype 1, gene bank access NM_000738), rM1 (rat Muscarinic receptor subtype 1, gene bank access NM_080773), hM3 (human Muscarinic receptor subtype 3, gene bank access NM_000740NM_000740) and hM5 (human Muscarinic receptor subtype 5, gene bank access NM_0121258), receptors expressed in CHO cells (Chinese hamster ovary cells, ATCC) is quantified in a Molecular Devices FLIPR II™ instrument as an increase in fluorescent signal. Inhibition of hM3 and hM5 by compounds is determined by the decrease in fluorescent signal in response to 2 nM acetylcholine activation.
(§2) Prior to experiment, the cell culture medium is removed from the plates by inversion. […] Plates are incubated at 37° C. for 60 minutes prior to start the experiment. The incubation is terminated by washing the cells four times in assay buffer, leaving a residual 25 μl buffer per well. Cell plates are then transferred to the FLIPR, ready for compound additions.
(§3) The day of experiment, acetylcholine and compounds are diluted in assay buffer in three-fold concentration range (10 points serial dilution) for addition by FLIPR instrument. For all calcium assays, a baseline reading is taken for 10 seconds followed by the addition of 12.5 μl of compounds, resulting in a total well volume of 37.5 μl. Data is collected every second for 60 pictures and then every 6 seconds for 20 pictures prior to the addition of agonist. For hM3 and hM5, before agonist addition, a second baseline reading is taken for 10 seconds followed by the addition of 12.5 μl of agonist or buffer, producing a final volume of 50 μl. After agonist stimulation, the FLIPR continues to collect data every second for 60 pictures and then every 6 seconds for 20 pictures. The fluorescence emission is read using filter 1 (emission 510-570 nm) by the FLIPR on board CCD camera.
(§4) Calcium mobilization output data are calculated as the maximal relative fluorescence unit (RFU) minus the minimal value for both compound and agonist reading frame (except for hM1 and rM1 using only the maximal RFU). Data are analyzed using sigmoidal fits of a non-linear curve-fitting program (XLfit version 4.2.2 Excel add-in version 4.2.2 build 18 math 1Q version 2.1.2 build 18). All pEC50 and pIC50 values are reported as arithmetic means±standard error of mean of ‘n’ independent experiments.
For orientation: Calcium assays in cells follow changes in intracellular calcium, usually with a dye or a luminescent sensor.

In test [2] the target is T2, hM3 (human Muscarinic receptor subtype 3) (Homo sapiens, UniProt P20309).
T2 construct: expressed in transfected cells; host or cells: CHO cells (Chinese hamster ovary cells, ATCC)
Nature of the test: Human M3 calcium mobilization FLIPR assay. The note with it: CHO cells expressing hM3, intracellular Ca2+ release. How it is done:
as §1, §2, §3, §4

Test [3] has as its target T3, hM5 (human Muscarinic receptor subtype 5) (Homo sapiens, UniProt P08912).
T3 construct: expressed in transfected cells; host or cells: CHO cells (Chinese hamster ovary cells, ATCC)
T3 sequence (P08912 1-532): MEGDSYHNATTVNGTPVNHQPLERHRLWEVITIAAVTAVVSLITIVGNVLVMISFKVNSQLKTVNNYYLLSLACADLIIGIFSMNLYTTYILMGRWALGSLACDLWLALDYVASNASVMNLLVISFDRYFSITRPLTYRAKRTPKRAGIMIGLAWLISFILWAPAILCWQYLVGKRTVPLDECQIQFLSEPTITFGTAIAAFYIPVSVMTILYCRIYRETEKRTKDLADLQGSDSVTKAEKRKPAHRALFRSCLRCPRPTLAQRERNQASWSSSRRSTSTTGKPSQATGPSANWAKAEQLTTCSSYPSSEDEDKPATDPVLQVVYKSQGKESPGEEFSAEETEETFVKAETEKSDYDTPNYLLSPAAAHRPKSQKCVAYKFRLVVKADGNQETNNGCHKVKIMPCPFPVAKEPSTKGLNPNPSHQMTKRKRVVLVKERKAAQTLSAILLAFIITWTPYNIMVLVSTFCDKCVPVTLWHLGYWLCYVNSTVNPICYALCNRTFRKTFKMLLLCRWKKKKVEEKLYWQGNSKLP
Nature of the test: Human M5 calcium mobilization FLIPR assay. Particulars: CHO cells expressing hM5, intracellular Ca2+ release. As for the experimental part: as §1, §2, §3, §4

The structures appear in SMILES notation.

T2 sequence (P20309 whole entry): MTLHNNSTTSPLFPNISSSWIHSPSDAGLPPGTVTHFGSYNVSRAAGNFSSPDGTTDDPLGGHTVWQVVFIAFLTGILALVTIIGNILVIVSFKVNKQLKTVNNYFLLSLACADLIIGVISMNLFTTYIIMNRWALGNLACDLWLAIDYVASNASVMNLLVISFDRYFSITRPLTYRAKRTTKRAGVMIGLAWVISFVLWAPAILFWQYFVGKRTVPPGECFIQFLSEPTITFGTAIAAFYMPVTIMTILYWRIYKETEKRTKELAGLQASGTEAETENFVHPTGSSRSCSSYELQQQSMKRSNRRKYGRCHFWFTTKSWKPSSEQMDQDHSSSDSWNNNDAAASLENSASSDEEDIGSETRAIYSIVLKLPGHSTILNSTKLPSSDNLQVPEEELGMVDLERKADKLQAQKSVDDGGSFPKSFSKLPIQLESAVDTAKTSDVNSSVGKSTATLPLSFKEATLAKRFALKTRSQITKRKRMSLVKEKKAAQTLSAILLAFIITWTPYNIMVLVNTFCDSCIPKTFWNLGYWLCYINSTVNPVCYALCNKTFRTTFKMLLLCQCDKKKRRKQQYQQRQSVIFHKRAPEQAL

For the compound `CC(C)OC(=O)N1CCC(C)(N2CCC(N3C(=O)C[C@H]4CCCC[C@@H]43)CC2)CC1` [Example 14, Propan-2-yl 4-[4-[(3aR,7aS)-2-oxo-3a,4,5,6,7,7a-hexahydro-3H-indol-1-yl]-1-piperidyl]-4-methyl-piperidine-1-carboxylate], the EC50 in test [1] is 19 nM; in test [2] it was greater than 40000 nM; in test [3], greater than 40000 nM.
Take `CC1(N2CCC(N3C(=O)N[C@H]4CCCC[C@@H]43)CC2)CCN(C(=O)OCCF)C1` (mixture of isomers) [Example 08, 2-fluoroethyl 3-[4-[(3aS,7aS)-2-oxo-3a,4,5,6,7,7a-hexahydro-3H-benzoimidazol-1-yl]-1-piperidyl]-3-methyl-pyrrolidine-1-carboxylate]: the EC50 in test [1] was 69 nM.
Turning to `C#CCOC(=O)N1CCC(C)(N2CCC(N3C(=O)N[C@H]4CCCC[C@@H]43)CC2)C1` (mixture of isomers) [Example 09, Prop-2-ynyl 3-[4-[(3aS,7aS)-2-oxo-3a,4,5,6,7,7a-hexahydro-3H-benzoimidazol-1-yl]-1-piperidyl]-3-methyl-pyrrolidine-1-carboxylate], the concentration for a half-maximal effect (EC50) in test [1] is less than 3.6 nM; in test [2], greater than 40000 nM; in test [3] it was 313 nM.
As for `CCOC(=O)N1CCC(C)(N2CCC(N3C(=O)N[C@@H]4CCCC[C@@H]43)CC2)CC1` (relative stereo) [Example 12, Ethyl 4-[4-[(cis)-2-oxo-3a,4,5,6,7,7a-hexahydro-3H-benzoimidazol-1-yl]-1-piperidyl]-4-methyl-piperidine-1-carboxylate], the EC50 in test [1] was 11 nM; in test [2], greater than 40000 nM; in test [3], 919 nM.
The matching figures for `CC(C)OC(=O)N1CCC(C)(N2CCC(N3C(=O)N[C@@H]4CCCC[C@H]43)CC2)CC1` [Example 05, Propan-2-yl 4-[4-[(3aR,7aR)-2-oxo-3a,4,5,6,7,7a-hexahydro-3H-benzoimidazol-1-yl]-1-piperidyl]-4-methyl-piperidine-1-carboxylate]: 25 nM, greater than 49000 nM and greater than 49200 nM.
Turning to `COC(=O)N1CCC(C)(N2CCC(N3C(=O)N[C@H]4CCCC[C@@H]43)CC2)C1` (mixture of isomers) [Example 10, Methyl 3-[4-[(3aS,7aS)-2-oxo-3a,4,5,6,7,7a-hexahydro-3H-benzoimidazol-1-yl]-1-piperidyl]-3-methyl-pyrrolidine-1-carboxylate], in test [1], the EC50 was found to be 69 nM.
Still for that read-out and setting: under `C#CCOC(=O)N1CCC(C)(N2CCC(N3C(=O)N[C@H]4CCCC[C@@H]43)CC2)CC1` [Example 17, prop-2-ynyl 4-[4-[(3aS,7aS)-2-oxo-3a,4,5,6,7,7a-hexahydro-3H-benzimidazol-1-yl]-1-piperidyl]-4-methyl-piperidine-1-carboxylate] stands 1.5 nM.
Regarding `CC1(N2CCC(N3C(=O)C[C@H]4CCCC[C@@H]43)CC2)CCN(C(=O)C2CC2)CC1` [Example 15, (3aR,7aS)-1-[1-[1-(cyclopropanecarbonyl)-4-methyl-4-piperidyl]-4-piperidyl]-3a,4,5,6,7,7a-hexahydro-3H-indol-2-one], the concentration for a half-maximal effect (EC50) in test [1] was 36 nM; in test [2], greater than 40000 nM; in test [3], greater than 40000 nM.
As to `CC#CCOC(=O)N1CCC(C)(N2CCC(N3C(=O)N[C@H]4CCCC[C@@H]43)CC2)CC1` [Example 16, But-2-ynyl 4-[4-[(3aS,7aS)-2-oxo-3a,4,5,6,7,7a-hexahydro-3H-benzimidazol-1-yl]-1-piperidyl]-4-methyl-piperidine-1-carboxylate], the concentration giving a half-maximal response (EC50) in test [1] was 3.6 nM; in test [2] it was greater than 40000 nM; in test [3], greater than 40000 nM.
With `CCOC(=O)N1CCC(C)(N2CCC(N3C(=O)N[C@H]4CCCC[C@@H]43)CC2)C1` (single isomer, unassigned) [Example 22], the values for the concentration for a half-maximal effect (EC50) in test [1], in test [2] and in test [3] were 3 nM, greater than 25600 nM and 412 nM, respectively.
Regarding `CCOC(=O)N1CCC(C)(N2CCC(N3C(=O)N[C@H]4CCCC[C@@H]43)CC2)C1` (single isomer, unassigned) [Example 21], the EC50 in test [1] is 18.4 nM; in test [2], greater than 22100 nM; in test [3], greater than 8410 nM.
As to `CC(C)OC(=O)N1CCC(C)(N2CCC(N3C(=O)N[C@H]4CCCC[C@@H]43)CC2)CC1` [Example 02, Propan-2-yl 4-[4-[(3aS,7aS)-2-oxo-3a,4,5,6,7,7a-hexahydro-3H-benzoimidazol-1-yl]-1-piperidyl]-4-methyl-piperidine-1-carboxylate], the half-maximal effective concentration (EC50) was 4.4 nM in test [1], greater than 40000 nM in test [2] and greater than 40000 nM in test [3].
As for `CCOC(=O)N1CCC(C)(N2CCC(N3C(=O)C[C@@H]4CCCC[C@H]43)CC2)C1` (stereo in doubt) [Example 23, Ethyl 3-[4-[(3aS,7aR)-2-oxo-3a,4,5,6,7,7a-hexahydro-3H-indol-1-yl]-1-piperidyl]-3-methyl-pyrrolidine-1-carboxylate], the EC50 was 22 nM in test [1], greater than 120000 nM in test [2] and greater than 120000 nM in test [3].
Turning to `CC1(N2CCC(N3C(=O)N[C@@H]4CCCC[C@H]43)CC2)CCN(C(=O)C2CC2)CC1` [Example 06, (3aR,7aR)-1-[1-[1-(cyclopropanecarbonyl)-4-methyl-4-piperidyl]-4-piperidyl]-3a,4,5,6,7,7a-hexahydro-3H-benzoimidazol-2-one], the values for the EC50 in test [1], in test [2] and in test [3] were 51 nM, greater than 49000 nM and greater than 49200 nM, respectively.
In the same order, the values of `CCC(=O)N1CCC(C)(N2CCC(N3C(=O)N[C@H]4CCCC[C@@H]43)CC2)CC1` [Example 18, (3aS,7aS)-3-[1-(4-methyl-1-propanoyl-4-piperidyl)-4-piperidyl]-3a,4,5,6,7,7a-hexahydro-1H-benzimidazol-2-one] are 66.6 nM, greater than 40000 nM and greater than 40000 nM.
Consider `CC#CCOC(=O)N1CCC(C)(N2CCC(N3C(=O)N[C@H]4CCCC[C@@H]43)CC2)C1` (single isomer, unassigned) [Example 19], for which the EC50 in test [1] came to 4.9 nM.
Regarding `CC(C)OC(=O)N1CCC(C)(N2CCC(N3C(=O)N[C@@H]4CCCC[C@@H]43)CC2)CC1` (relative stereo) [Example 13, Propan-2-yl 4-[4-[(cis)-2-oxo-3a,4,5,6,7,7a-hexahydro-3H-benzoimidazol-1-yl]-1-piperidyl]-4-methyl-piperidine-1-carboxylate], the half-maximal effective concentration (EC50) in test [1] was 54 nM; in test [2], greater than 40000 nM; in test [3], greater than 40000 nM.
`CCOC(=O)N1CCC(C)(N2CCC(N3C(=O)N[C@@H]4CCCC[C@H]43)CC2)C1` (mixture of isomers) [Example 11, Ethyl 3-[4-[(3aR,7aR)-2-oxo-3a,4,5,6,7,7a-hexahydro-3H-benzoimidazol-1-yl]-1-piperidyl]-3-methyl-pyrrolidine-1-carboxylate]: the concentration for a half-maximal effect (EC50) in test [1] was determined as 55 nM.
